The numbers were not newly measured in paper PMC6699497 (Drug Design, Development and Therapy, 2019), which cites them from elsewhere.

Molecules are shown by their SMILES.

For data set [1] the following is noted: species not given.
The conditions of data set [2]: rat.
Where [3] appears, read: previous study compared with present value.

On to `CNC(=O)c1c(C)oc2cc(Oc3ncnc4cc(OC)c(OC)cc34)ccc12` [Fruquintinib, 6-(6,7-dimethoxyquinazolin-4-yloxy) - N,2-dimethylbenzofuran-3-carboxamide], for which, in data set [1], the “plasma protein binding fraction” value was 88–95%. Also, the oral bioavailability in data set [2] is 42–53%. Moreover, in data set [2] (setting [3]), the highest concentration (Cmax) was 326.00 ng/mL and the t1/2 was 1.40 h.
